Laboratory results taken from patent publication US20150329825A1, “COMPOSITIONS AND METHODS EMPLOYING STEM CELL-DERIVED CARDIOMYOCYTES” (THE REGENTS OF THE UNIVERSITY OF MICHIGAN, priority 2014, published 2015).

What was measured:
Type in all cases: cell-based, human
hiPSC-CM monolayers [1] = test: 96 well optical mapping of intracellular calcium flux in hiPSC-CM monolayers under IKr blockade; details: 100 nmol L^-1 E4031
Experimental: Briefly, monolayers were loaded with the intracellular Ca^2+ indicator, rhod-2AM (10 μmol L-1, Life Technologies). After a 30 minute incubation time, the cells were washed in Hanks balanced salt solution (HBSS, Life Technologies) for an additional 30 minutes before optical mapping recordings. […] Movies were filtered in both the time and space domain and conduction velocity (CV) was measured as described previously (Hou L, et al., Circulation Research. 2010;107:1503-1511, herein incorporated by reference in its entirety).
Small glass coverslips to fit into a 96 well format dish are not readily available so here plastic was used as the rigid comparator for PDMS.

hiPSC-CMs (iCell) = test: Western blotting for mature myofilament proteins (cTnI, β-MyHC) in hiPSC-CMs cultured with FAK inhibitor
hiPSC-CM monolayers [2] = test: Hypertrophic growth and monolayer formation of hiPSC-CMs on glass or PDMS coverslips with FAK inhibitor
Experimental: In a second set of experiments hiPSC-CM monolayers were fixed for immunocytochemistry following optical mapping recordings of impulse propagation as recently described (Lee P, et al., Circulation Research. 2012;110:1556-1563, herein incorporated by reference in its entirety). Briefly, cell monolayers were washed with PBS and then fixed with 4% paraformaldehyde for 10 minutes and rinsed twice before blocking with 10% normal donkey serum in PBS plus 0.1% Triton X-100 (Sigma) for 1.5 hours at room temperature. Primary antibodies were used to detect α-actinin (1:500, Sigma) in the cardiac sarcomeres and Cx43 (1:100, Millipore) and N-cadherin (1:200, BD Bioscience) at the intercellular junctions. The primary antibodies were added to 5% donkey serum in PBS plus 0.1% Triton X-100 and incubated overnight at 4° C. Subsequently, cells were washed three times in PBS plus 0.1% TRITON X-100. […] Protein localization was examined by laser scanning confocal microscopy with sequential laser firing for multiple fluorophores (Nikon AIR, Melville, N.Y.). iPSC-CM cross sectional area was calculated in NIS Elements software using N-cadherin staining of the cell membranes.
Integrins are transmembrane heterodimeric receptors essential for providing cell-extracellular matrix adhesion, cellular structural organization and transduction of mechanical signals from the extracellular matrix into biochemical signals in cardiomyocytes (Ross R S, et al., Circulation Research. 2001;88:1112-1119; Israeli-Rosenberg S, et al., The FASEB Journal. 2015;29:374-384; Israeli-Rosenberg S, et al., Circulation Research. 2014;114:572-586). β1 integrins are abundant in the adult heart and participate in the hypertophic response in rodent ventricular myoyctes (Ross et al., Circulation Research. […] Finally, the role of FAK activation in the hypertrophic response of hiPSC-CMs to the soft cell culture environment on PDMS was determined (FIG. 8D and FIG. 14).

[3] = 10 μmol L^-1 FAK inhibitor-14, cultured on PDMS

SMILES	CaTD80 post E4031 (hiPSC-CM monolayers [1]; PDMS bottom dishes, n=5, pre 579.8±13.9 ms) [ms]	effect on beat frequency and CaTD80 (in words) (hiPSC-CM monolayers [1]; PDMS bottom well)	reduction of spontaneous beating frequency (hiPSC-CM monolayers [1]; monolayers on matrigel coated PDMS, n=5) [%]	reduction of spontaneous beating frequency (hiPSC-CM monolayers [1]; monolayers on rigid plastic (matrigel coated), n=8) [%]	CaTD80 post E4031 (hiPSC-CM monolayers [1]; plastic bottom dishes, n=8, pre 605.9±24.3 ms) [ms]	effect on spontaneous beating frequency and CaTD80 (in words) (hiPSC-CM monolayers [1]; rigid plastic bottom dishes (matrigel coated))	cTnI expression (hiPSC-CMs (iCell); [3])	β-MyHC expression (hiPSC-CMs (iCell); [3])	expression of mature myofilament protein isoforms including cTnI and β-MyHC (hiPSC-CMs (iCell); FIG. 8C legend)	monolayer formation and hiPSC-CM expansion in culture (hiPSC-CM monolayers [2]; 100 μmol L^-1, both Glass and PDMS)	hypertrophic growth of hiPSC-CMs (hiPSC-CM monolayers [2]; PDMS coverslips)	effect on hiPSC-CMs grown on glass coverslips (hiPSC-CM monolayers [2]; glass coverslips, effect only at 100 μmol L^-1)
Cc1cccc(CCN2CCC(C(=O)c3ccc(NS(C)(=O)=O)cc3)CC2)n1 [E4031]	780.1 ± 74.1	more modest effect	~20	~50	1873.8 ± 278.9	very significant impact						
Nc1cc(N)c(N)cc1N [FAK inhibitor-14]							failed to express cTnI	expressed less β-MyHC	prevents expression	prevented monolayer formation and hiPSC-CM expansion in culture	prevented hypertrophic growth	only affected at very high dose
